Reference: patent US20140045746A1 (Merck Sharp & Dohme Corp., priority 2012, published 2014)
Converted amounts (≈) assume the structure as drawn.

Legend:
[1] = Solubility in PBS pH 7; assay type: physicochemical; conditions: aqueous buffer; pH 7, PBS
[2] = biological target: T1, hGPR40 (Homo sapiens, UniProt O14842); assay: GPR40 Inositol Phosphate Turnover (IP1) Assay; assay type: cell-based; parameters: expressed in transfected cells; host or cells: HEK cells stably expressing the aequorin reporter
T1 sequence (O14842 whole entry): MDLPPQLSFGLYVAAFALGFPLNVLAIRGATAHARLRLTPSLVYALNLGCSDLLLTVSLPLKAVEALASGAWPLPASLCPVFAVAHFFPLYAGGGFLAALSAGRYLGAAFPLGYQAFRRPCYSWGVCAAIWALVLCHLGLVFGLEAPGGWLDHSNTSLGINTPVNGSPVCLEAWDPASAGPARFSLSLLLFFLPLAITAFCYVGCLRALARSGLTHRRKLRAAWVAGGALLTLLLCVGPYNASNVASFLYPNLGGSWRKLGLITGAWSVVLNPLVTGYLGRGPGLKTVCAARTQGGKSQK

[3] = biological target: KV11.1 ion channel (hERG) (Homo sapiens, UniProt Q12809); assay: Binding to ion channel Kv11.1 (hERG)
KV11.1 ion channel (hERG), sequence (Q12809 whole entry): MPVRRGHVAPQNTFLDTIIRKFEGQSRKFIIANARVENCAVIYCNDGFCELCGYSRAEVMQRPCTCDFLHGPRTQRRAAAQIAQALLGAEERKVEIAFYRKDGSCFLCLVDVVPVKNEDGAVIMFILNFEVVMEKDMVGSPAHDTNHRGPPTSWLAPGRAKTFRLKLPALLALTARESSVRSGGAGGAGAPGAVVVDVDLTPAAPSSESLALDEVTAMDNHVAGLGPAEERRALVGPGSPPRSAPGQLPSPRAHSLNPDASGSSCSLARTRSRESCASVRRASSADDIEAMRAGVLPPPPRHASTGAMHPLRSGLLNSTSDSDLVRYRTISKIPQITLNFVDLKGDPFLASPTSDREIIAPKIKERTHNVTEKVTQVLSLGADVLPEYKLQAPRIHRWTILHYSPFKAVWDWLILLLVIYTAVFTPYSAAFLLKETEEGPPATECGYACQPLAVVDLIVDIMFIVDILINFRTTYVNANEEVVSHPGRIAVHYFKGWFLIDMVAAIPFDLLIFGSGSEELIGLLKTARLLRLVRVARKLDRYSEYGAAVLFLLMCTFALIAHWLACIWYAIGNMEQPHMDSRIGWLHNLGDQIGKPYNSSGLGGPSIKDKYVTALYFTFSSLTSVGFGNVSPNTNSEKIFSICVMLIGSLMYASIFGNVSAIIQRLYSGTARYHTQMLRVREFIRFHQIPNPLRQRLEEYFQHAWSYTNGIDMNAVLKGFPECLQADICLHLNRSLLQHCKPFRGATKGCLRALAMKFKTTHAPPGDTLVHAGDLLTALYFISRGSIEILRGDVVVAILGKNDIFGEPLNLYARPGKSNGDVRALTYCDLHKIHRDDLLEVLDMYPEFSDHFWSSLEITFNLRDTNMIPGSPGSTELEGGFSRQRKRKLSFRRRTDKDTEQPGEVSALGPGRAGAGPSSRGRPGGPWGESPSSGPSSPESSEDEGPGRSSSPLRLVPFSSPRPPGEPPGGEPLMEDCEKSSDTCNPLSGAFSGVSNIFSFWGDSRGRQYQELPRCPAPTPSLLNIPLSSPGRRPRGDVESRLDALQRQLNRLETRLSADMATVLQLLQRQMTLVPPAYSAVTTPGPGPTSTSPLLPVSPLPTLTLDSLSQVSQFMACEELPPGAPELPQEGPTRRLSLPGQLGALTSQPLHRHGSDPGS

[4] = biological target: T1, hGPR40; assay: GPR40 FLIPR assay (agonist-induced calcium mobilization); assay type: cell-based; parameters: expressed in transfected cells; host or cells: CHO cells stably expressing NFAT BLA (beta-lactamase); conditions: GPR40/CHO NFAT BLA cells;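 note: calcium mobilization in the cells read as fluorescence of fluo-4 AM loaded cells on FLIPR after compound addition, cells preloaded with dye 100 min at room temperature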
Description: Human and mouse GPR40 stable cell-lines were generated in CHO cells stably expressing NFAT BLA (Beta-lactamase). […] The expression plasmids were transfected using lipofectamine (Life Technologies) following manufacturer's instructions. Stable cell-lines were generated following drug selection.
FLIPR (Fluorimetric Imaging Plate Reader, Molecular Devices) assays were performed to measure agonist-induced calcium mobilization of the stable clones. For the FLIPR assay, one day before assay, GPR40/CHO NFAT BLA cells were seeded into black-wall-clear-bottom 384-well plates (Costar) at 1.4×10e4 cells/20 μL medium/well. The cells were incubated with 20 μl/well of the assay buffer (HBSS, 0.1% BSA, 20 mM HEPES, 2.5 mM probenecid, pH 7.4) containing 8 μM fluo-4, AM, 0.08% pluronic acid at room temperature for 100 minutes. Fluorescence output was measured using FLIPR. Compounds were dissolved in DMSO and diluted to desired concentrations with assay buffer. 13.3 μL/well of compound solution was added.

[5] = +0% human serum (Table A), read-out: Human GPR40 IP1, EC50, +0% human serum
[6] = +100% human serum (Table A), read-out: Human GPR40 IP1, EC50, +100% human serum
[7] = HEK cells stably expressing human GPR40, 0% serum, read-out: hGPR40 IP1 EC50 (0% serum)

Row | SMILES | solubility [1] [µM] | EC50 [2, 5] [µM] | EC50 [2, 6] [µM] | Ki [3] [µM] | EC50 [4] [µM] | EC50 [2, 7] [µM]
1 | Cc1cc(OCC2(C)COC2)cc(C)c1-c1cccc(COc2cc3c(cn2)[C@H]2[C@@H](C3)[C@@H]2C(=O)O)c1 (single isomer, unassigned) [Compound A-2] | 118 (≈ 57.3 µg/mL) | 0.018 | 0.199 |  |  | 
2 | Cc1cc(OCC2(C)COC2)cc(C)c1-c1ccc(F)c(COc2cc3c(cn2)[C@H]2[C@@H](C3)[C@@H]2C(=O)O)c1 (single isomer, unassigned) [Compound A-3] | 107 (≈ 53.9 µg/mL) | 0.009 | 0.081 | 40.2 |  | 
3 | Cc1nc(OCC(F)(F)C(F)(F)F)ccc1-c1ccc(F)c(COc2cc3c(cn2)C2C(C3)C2C(=O)O)c1 (stereo not shown) [Compound 23-18, 3-((2-fluoro-5-(2-methyl-6-(2,2,3,3,3-pentafluoro-propoxy)pyridin-3-yl)-benzyl)oxy)-5,5a,6,6a-tetra-hydrocyclopropa[4,5] cyclopenta[1,2-c]pyridine-6-carboxylic acid] |  |  |  |  | 0.01 | 0.056
4 | Cc1nc(OCCCS(C)(=O)=O)ccc1-c1ccc(F)c(CNc2cc3c(cn2)C2C(C3)C2C(=O)O)c1 (stereo not shown) [Compound 24-4, 3-((2-fluoro-5-(2-methyl-6-(3-(methylsulfonyl)propoxy)pyridin-3-yl)benzyl)amino)-5,5a,6,6a-tetrahydrocyclopropa[4,5]cyclopenta[1,2-c]pyridine-6-carboxylic acid] |  |  |  |  | 0.096 | 0.09
5 | O=C(O)[C@H]1[C@@H]2Cc3cc(OCc4cc(Oc5ccccc5C(F)(F)F)ccc4F)ncc3[C@@H]21 [Compound 25-2, 4-[2-Fluoro-5-(2-trifluoromethyl-phenoxy)-benzyloxy]-1,1a,6,6a-tetrahydro-3-aza-cyclopropa[a]indene-1-carboxylic acid] |  |  |  |  | 0.035 | 0.056
6 | O=C(O)[C@H]1[C@@H]2Cc3cc(OCc4cc(Oc5ccccc5)ccc4F)ncc3[C@@H]21 [Compound 25-3, 4-(2-Fluoro-5-phenoxy-benzyloxy)-1,1a, 6,6a-tetrahydro-3-aza-cyclopropa [a]indene-1-carboxylic acid] |  |  |  |  | 0.034 | 0.085
7 | O=C(O)[C@H]1[C@@H]2Cc3cc(OCc4cc(Oc5ccc(C(F)(F)F)cc5Cl)ccc4F)ncc3[C@@H]21 [Compound 25-4, 4-[5-(2-Chloro-4-trifluoromethyl-phenoxy)-2-fluoro-benzyloxy]-1,1a, 6,6a-tetrahydro-3-aza-cyclopropa [a]indene-1-carboxylic acid] |  |  |  |  | 0.049 | 0.3
8 | Cc1cccc(C)c1-c1ccc(F)c(COc2cc3c(cn2)C2C(C3)C2C(=O)O)n1 (stereo not shown) [Compound 26-7, 3-((6-(2,6-dimethylphenyl)-3-fluoropyridin-2-yl)methoxy)-5,5a,6,6a-tetrahydrocyclopropa[4,5]cyclopenta[1,2-c]pyridine-6-carboxylic acid] |  |  |  |  | 0.042 | 0.12
9 | Cc1cccc(C)c1-c1cc(COc2cc3c(cn2)C2C(C3)C2C(=O)O)c(F)cn1 (stereo not shown) [Compound 26-8, 3-((2-(2,6-dimethyl-phenyl)-5-fluoropyridin-4-yl)methoxy)-5,5a,6,6a-tetrahydrocyclopropa [4,5]cyclopenta[1,2-c]pyridine-6-carboxylic acid] |  |  |  |  | 0.028 | 0.1
10 | CS(=O)(=O)CCCOc1ccc(-c2ccc(F)c(COc3cc4c(cn3)[C@H]3[C@@H](C4)[C@@H]3C(=O)O)n2)c(C(F)(F)F)c1 [Compound 26-9, (5aR,6S,6aS)-3-((3-fluoro-6-(4-(3-(methyl-sulfonyl)-propoxy)-2-(trifluoromethyl)-phenyl)pyridin-2-yl)methoxy)-5,5a,6,6a-tetrahydrocyclo-propa[4,5]cyclopenta [1,2-c]pyridine-6-carboxylic acid] |  |  |  |  | 0.07 | 0.053
11 | Cc1nc(N2CCN(S(C)(=O)=O)CC2)ccc1-c1ccc(F)c(COc2cc3c(cn2)[C@H]2[C@@H](C3)[C@@H]2C(=O)O)n1 [Compound 26-10, (5aR,6S,6aS)-3-((5-fluoro-2′-methyl-6′-(4-(methylsulfonyl)-piperazin-1-yl)-[2,3′-bipyridin]-6-yl)methoxy)-5,5a,6,6a-tetrahydrocyclo-propa[4,5]cyclopenta [1,2-c]pyridine-6-carboxylic acid] |  |  |  |  | 0.09 | 0.3
12 | Cc1cccc(C)c1-c1cccc(COc2cc3c(cn2)C2[C@@H](C3)[C@@H]2C(=O)O)c1C (stereo partly shown) [Compound 27-5, 4-(2,2′,6′-Trimethyl-biphenyl-3-ylmethoxy)-1,1a,6,6a-tetrahydro-3-aza-cyclopropa[a]indene-1-carboxylic acid] |  |  |  |  | 0.0081 | 0.0067
13 | Cc1c(COc2cc3c(cn2)C2C(C3)C2C(=O)O)cccc1-c1ccccc1C(F)(F)F (stereo not shown) [Compound 27-6, 3-((2-methyl-2′-(trifluoro-methyl)-[1,1′-biphenyl]-3-yl)methoxy)-5,5a,6,6a-tetrahydrocyclopropa[4,5]-cyclopenta[1,2-c]pyridine-6-carboxylic acid] |  |  |  |  | 0.03 | 0.085
14 | Cc1cc(OCCCC(C)(C)C#N)cc(C)c1-c1cccc(COc2cc3c(cn2)C2[C@@H](C3)[C@@H]2C(=O)O)c1 (stereo partly drawn) [Compound 28-6, (5aR,6S,6aR)-3-((4′-((4-cyano-4-methylpentyl)oxy)-2′,6′-dimethyl-[1,1′-biphenyl]-3-yl)methoxy)-5,5a,6,6a-tetrahdrocyclopropa[4,5]cyclopenta[1,2-c]pyridine-6-carboxylic acid] |  |  |  |  | 0.024 | 0.066
15 | Cc1cc(O[C@H]2C[C@@](C)(C#N)C2)cc(C)c1-c1cccc(COc2cc3c(cn2)C2[C@@H](C3)[C@@H]2C(=O)O)c1 (stereo partly drawn) [Compound 29-7, (5aR,6S,6aR)-3-((4′-((1s,3s)-3-cyano-3-methylcyclobutoxy)-2′,6′-dimethyl-[1,1′-biphenyl]-3-yl)methoxy)-5,5a,6,6a-tetrahydrocyclopropa[4,5]cyclopenta[1,2-c]pyridine-6-carboxylic acid] |  |  |  |  | 0.054 | 0.021
16 | Cc1cc(OCCCS(C)(=O)=O)cc(C)c1-c1ccc(F)c(C(C)Oc2cc3c(cn2)[C@H]2[C@@H](C3)[C@@H]2C(=O)O)c1 (stereo partly drawn) [Compound 30-5, (5aR,6S,6aS)-3-(1-(4-fluoro-2′,6′-dimethyl-4′-(3-(methylsulfonyl)propoxy)-[1,1′-biphenyl]-3-yl)ethoxy)-5,5a,6,6a-tetrahydrocyclopropa[4,5]cyclopenta[1,2-c]pyridine-6-carboxylic acid] |  |  |  |  | 0.045 | 0.3
17 | Cc1nc(N2CC(CS(C)(=O)=O)C2)ccc1-c1ccc(F)c(COc2cc3c(cn2)[C@H]2[C@@H](C3)[C@@H]2C(=O)O)c1 [Compound 31-8] |  |  |  |  | 0.051 | 0.028
18 | Cc1nc(N2CCC(CS(C)(=O)=O)C2)ccc1-c1ccc(F)c(COc2cc3c(cn2)C2C(C3)C2C(=O)O)c1 (stereo not shown) [Compound 31-9, 3-((2-fluoro-5-(2-methyl-6-(3-((methylsulfonyl)-methyl)pyrrolidin-1-yl)pyridin-3-yl)benzyl)oxy)-5,5a,6,6a-tetrahydrocyclopropa[4,5]cyclopenta[1,2-c]pyridine-6-carboxylic acid] |  |  |  |  | 0.076 | 0.069
19 | Cc1nc(N2CCOCC2)nc(C)c1-c1ccc(F)c(COc2cc3c(cn2)C2C(C3)C2C(=O)O)c1 (stereo not shown) [Compound 31-10, 3-((5-(4,6-dimethyl-2-morpholinopyrimidin-5-yl)-2-fluorobenzyl)oxy)-5,5a,6,6a-tetrahydrocyclopropa[4,5]cyclopenta[1,2-c]pyridine-6-carboxylic acid] |  |  |  |  | 0.086 | 0.045
20 | Cc1nc(N2CCC3(C=Cc4ccccc43)CC2)nc(C)c1-c1ccc(F)c(COc2cc3c(cn2)C2C(C3)C2C(=O)O)c1 (stereo not shown) [Compound 31-11, 3-((5-(4,6-dimethyl-2-(spiro[indene-1,4′-piperidin]-1′-yl)pyrimidin-5-yl)-2-fluorobenzyl)oxy)-5,5a,6,6a-tetrahydrocyclopropa[4,5]cyclopenta[1,2-c]pyridine-6-carboxylic acid] |  |  |  |  | 0.045 | 0.18
21 | Cc1nc(N2CCC(NS(C)(=O)=O)C2)ccc1-c1ccc(F)c(COc2cc3c(cn2)C2C(C3)C2C(=O)O)c1 (stereo not shown) [Compound 31-12, 3-((2-fluoro-5-(2-methyl-6-(3-(methylsulfonamido)-pyrrolidin-1-yl)pyridin-3-yl)benzyl)oxy)-5,5a,6,6a-tetrahydrocyclopropa[4,5]cyclopenta[1,2-c]pyridine-6-carboxylic acid] |  |  |  |  | 0.044 | 0.051
22 | Cc1nc(N2CCN(S(C)(=O)=O)CC2)ccc1-c1ccc(F)c(COc2cc3c(cn2)[C@H]2[C@@H](C3)[C@@H]2C(=O)O)c1 [Compound 31-13, (5aR,6S,6aS)-3-((2-fluoro-5-(2-methyl-6-(4-(methylsulfonyl)piperazin-1-yl)pyridin-3-yl)benzyl)oxy)-5,5a,6,6a-tetrahydrocyclopropa[4,5]cyclopenta[1,2-c]pyridine-6-carboxylic acid] |  |  |  |  | 0.069 | 0.032
23 | CCc1nc2ccc(F)c(F)c2n1-c1cccc(COc2cc3c(cn2)[C@H]2[C@@H](C3)[C@@H]2C(=O)O)c1C [Compound 32-9, (5aR,6S,6aS)-3-((3-(2-ethyl-6,7-difluoro-1H-benzo[d]imidazol-1-yl)-2-methylbenzyl)oxy)-5,5a,6,6a-tetrahydrocyclopropa[4,5]cyclopenta[1,2-c]pyridine-6-carboxylic acid] |  |  |  |  | 0.03 | 0.0049
24 | Cc1cc(CCCC(C)(C)O)cc(C)c1-c1ccc(F)c(COc2ccc3c(c2)C[C@H]2[C@H](C(=O)O)[C@@H]32)c1 [Compound B-4, reference compound] | 66 (≈ 33.2 µg/mL) | 0.1 | 0.348 |  |  | 
